The values below come from publication PMC10108742, “Design, synthesis and evaluation of OA-tacrine hybrids as cholinesterase inhibitors with low neurotoxicity and hepatotoxicity against Alzheimer’s disease” (Journal of Enzyme Inhibition and Medicinal Chemistry, 2023).

As usually defined, the IC50 is the midpoint of a concentration-inhibition curve.

For data set [1], the target named is T1, hBuChE (Homo sapiens, UniProt P06276).
T1 construct: purchased Sigma Aldrich
As to the kind of experiment: hBuChE inhibition, Ellman's method. Format: biochemical. As to conditions: hBuChE from human serum, mean ± SD of three experiments. How it is done:
hAChE, hBuChE, Acetylcholinesterase Activity Assay Kit and Butyrylcholinesterase Activity Assay Kit were purchased from Sigma Aldrich. […] The capacity of all the target compounds to inhibit hAChE and hBuChE activities were assessed by Ellman’s method. […] Results are expressed as the mean ± SD of at least three different experiments performed in triplicate.
Preparation of 50 mM Tris–HCl buffer solutions: 5 ml Tris solution (1 M, Ph 8.5, Beyotime Biotechnology) was dissolved in distilled water (95 ml) and adjusted with HCl to a pH of 8.0 ± 0.1. Buffer was freshly prepared and stored in the refrigerator. […] All solutions were stored in Eppendorf caps in the refrigerator or freezer, if necessary. […] The final concentrations for the enzymatic assay were yielded by diluting the stock solution with bi-distilled water.
(§1) A mixture of the DTNB solution (160 µL), enzyme solution (50 µL) and compounds solutions (10 µL, 3 different concentrations and once blank water) was prepared and incubated at 37 °C for 10 min. The substrate (30 µL) was added to start the enzymatic reaction. […] All measurements were performed as triplicates.

For data set [2], the system named is HepG2 cells. Kind of data set: Intracellular ROS production in HepG2 cells, DCFH-DA, flow cytometry. As to conditions: 50 μM, compared with control / tacrine group. The procedure: The percentage of cells for ROS was stained with DCFH-DA and the stained cells were immediately determined by flow cytometry.
The level of intracellular ROS was measured by using the ROS-sensitive dye, 2′,7′-dichloro-fluorescein diacetate (DCFH-DA), as a probe. In brief, cells were seeded in six-well plates at 2.0 × 10^5 cells/well, treating with different tested compounds for 24 h, and then washed three times and incubated with final concentration of 10 μM DCFH-DA for 30 min at 37 °C in the dark. After incubation, cells were washed three times and harvested in free-serum medium. […] Data were processed by using cell quest software (Becton & Dickinson Company, Franklin Lakes, NJ).
Background: A flow cytometer gives signals particle by particle.

Data set [3] has as its system HepG2 cells. Kind of data set: Apoptosis in HepG2 cells, AnnexinV/PI double staining, flow cytometry. The conditions noted are these: 50 μM, 24 h, control group 4.34%. The procedure:
Figure 6. […] Apoptotic cells detected by flow cytometry after AnnexinV and PI double staining.
Annexin V-FITC and propidium iodide were used to evaluate apoptotic cells by flow cytometry. Cells were treated with different concentrations of tested compounds for 24 h. Then the cells were washed twice with phosphate-buffered saline (PBS) (centrifugation at 2000 rpm, 5 min). The collected cells were then resuspended in 500 μL of binding buffer. After stained with 5 μL AnnexinV-FITC and 5 μL propidium iodide at room temperature for 15 min. Cells were then analysed by BD Accuri C6 flow cytometer with cell quest software (Becton & Dickinson Company, Franklin Lakes, NJ). Cells undergoing apoptosis are both Annexin V positive and PI negative.

The test system of data set [4] is SH-SY5Y cells. Kind of data set: Cell viability in SH-SY5Y cells, CCK-8 assay. As to conditions: 24 h. The procedure:
(§2) Figure 5. Effects of various concentrations of compounds on cell viability in SH-SY5Y cells and HepG2 cells after treatment for 24 h. Cell viability was measured by CCK-8 assay. Data were shown as mean ± SD of three independent experiments.
(§3) HepG2 and SH-SY5Y cells were obtained from the Cell Bank of Shanghai Institute of Biochemistry and Cell Biology, Chinese Academy of Sciences (Shanghai, China). HepG2 and SH-SY5Y cells were cultured in MEM or MEM/F12 supplemented with 10% FBS, 100 units mL^−1 penicillin/streptomycin and maintained in a humidified atmosphere of 5% CO2 at 37 °C. Initially, 8000 cells per well were seeded in 96-well plates for HepG2 or SH-SY5Y cells, then treated with vehicle alone or tested compounds for 24 h. Then 10 μL CCK8 purchased from CELLCOOK was added to each well and further incubated for another 3 h. The absorbance was measured using a microplate reader (450 nm).
On the technique in general: Tetrazolium assays rely on reduction of a dye to a coloured formazan, in cell work by metabolically active cells.

Data set [5] concerns the target T2, hAChE (Homo sapiens, UniProt P22303).
T2 construct: purchased Sigma Aldrich
As to the kind of experiment: biochemical. How it is done: The capacity of all the target compounds to inhibit hAChE and hBuChE activities were assessed by Ellman’s method. […] Results are expressed as the mean ± SD of at least three different experiments performed in triplicate.
Buffer was freshly prepared and stored in the refrigerator. […] All solutions were stored in Eppendorf caps in the refrigerator or freezer, if necessary. […] The final concentrations for the enzymatic assay were yielded by diluting the stock solution with bi-distilled water.
as §1

Data set [6] relates to HepG2 cells. Kind of data set: Cell viability in HepG2 cells, CCK-8 assay. The conditions noted are these: 24 h. The procedure: as §2, §3
Setting [7] is: hAChE from human erythrocytes, mean ± SD of three experiments.

Where two headings read alike, the source gives them in different places.

T1 sequence (P06276 29-602): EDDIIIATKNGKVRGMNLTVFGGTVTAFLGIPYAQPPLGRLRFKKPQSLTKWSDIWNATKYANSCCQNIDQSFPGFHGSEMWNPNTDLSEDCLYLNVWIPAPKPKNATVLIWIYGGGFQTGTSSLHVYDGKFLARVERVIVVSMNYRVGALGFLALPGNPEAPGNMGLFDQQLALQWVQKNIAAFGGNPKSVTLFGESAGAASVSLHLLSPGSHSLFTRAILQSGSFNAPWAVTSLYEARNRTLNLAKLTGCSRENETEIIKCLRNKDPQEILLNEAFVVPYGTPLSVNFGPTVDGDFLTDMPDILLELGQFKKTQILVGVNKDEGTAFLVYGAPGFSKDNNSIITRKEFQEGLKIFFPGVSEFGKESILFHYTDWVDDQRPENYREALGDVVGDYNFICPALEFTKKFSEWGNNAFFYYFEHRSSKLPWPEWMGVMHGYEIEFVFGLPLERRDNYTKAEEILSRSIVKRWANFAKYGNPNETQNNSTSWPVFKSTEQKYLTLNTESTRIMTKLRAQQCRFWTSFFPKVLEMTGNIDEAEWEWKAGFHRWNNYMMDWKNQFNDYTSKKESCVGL
T2 sequence (P22303 32-614): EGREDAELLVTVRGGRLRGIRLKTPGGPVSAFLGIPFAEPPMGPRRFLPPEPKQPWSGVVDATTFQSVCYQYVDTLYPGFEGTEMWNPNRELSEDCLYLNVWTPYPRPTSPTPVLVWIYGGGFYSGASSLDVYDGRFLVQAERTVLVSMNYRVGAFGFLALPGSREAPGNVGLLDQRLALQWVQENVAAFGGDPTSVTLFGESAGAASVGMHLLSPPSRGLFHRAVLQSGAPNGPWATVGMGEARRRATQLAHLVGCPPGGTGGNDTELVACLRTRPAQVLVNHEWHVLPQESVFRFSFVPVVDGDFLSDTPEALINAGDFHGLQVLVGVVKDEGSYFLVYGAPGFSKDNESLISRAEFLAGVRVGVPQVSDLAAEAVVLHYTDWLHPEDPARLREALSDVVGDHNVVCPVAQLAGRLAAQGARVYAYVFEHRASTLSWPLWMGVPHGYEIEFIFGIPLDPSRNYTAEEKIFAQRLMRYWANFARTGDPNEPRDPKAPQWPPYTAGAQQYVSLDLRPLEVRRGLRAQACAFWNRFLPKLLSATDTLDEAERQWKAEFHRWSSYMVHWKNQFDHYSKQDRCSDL

Consider `CC1(C)CC[C@]2(C(=O)NCCCCCCNc3c4c(nc5cc(Cl)ccc35)CCCC4)CC[C@]3(C)C(=CCC4[C@@]5(C)CC[C@H](O)C(C)(C)C5CC[C@]43C)C2C1` (stereo partly drawn) [Compound B4], for which the IC50 in data set [1] (IC50 hBuChE) is > 10 µM. The “intracellular ROS levels (in words)” value in data set [2] is on record as “significantly lower than that in the tacrine group”. Further, in data set [3], the “percentage of apoptotic cells” value was determined as 7.69%. For the same compound, the “effect on SH-SY5Y cell viability” value in data set [4] (50 μM) is listed as “little effect”. Besides, in data set [5], inhibition was half-maximal at 0.0144 ± 0.00189 µM (IC50) and the “SI (selectivity index, hBuChE/hAChE)” value is reported as >695.89. Also, the “HepG2 cell viability rate” value in data set [6] (50 μM) is listed as “close to that of the control group”.

In the case of `CC1(C)CC[C@]2(C(=O)NCCNc3c4c(nc5cc(Br)ccc35)CCCC4)CC[C@]3(C)C(=CCC4[C@@]5(C)CC[C@H](O)C(C)(C)C5CC[C@]43C)C2C1` (stereo partly drawn) [Compound D1, N-(2-((6-bromo-1,2,3,4-tetrahydroacridin-9-yl)amino)ethyl)-olean-12-en-28-amide], the IC50 in data set [1] (read-out: IC50 hBuChE) and in data set [5] was > 10 µM each time.

Take `Nc1c2c(nc3ccccc13)CCCC2` [Tacrine]: in data set [2], the “intracellular ROS levels (in words)” value is given as “significant hepatotoxicity”. Moreover, the “percentage of apoptotic cells” value in data set [3] is recorded as 18.90%. Moreover, in data set [4] (50–100 μM), the “cytotoxicity to SH-SY5Y cells (cell viability)” value is recorded as “cytotoxic”. Further, in data set [6] (50–100 μM), the “cytotoxicity to HepG2 cells (cell viability)” value is recorded as “cytotoxic”.

As to `CC1(C)CC[C@]2(C(=O)NCCCCNc3c4c(nc5cc(F)ccc35)CCCC4)CC[C@]3(C)C(=CCC4[C@@]5(C)CC[C@H](O)C(C)(C)C5CC[C@]43C)C2C1` (stereo partly drawn) [Compound F3, N-(4-((6-fluoro-1,2,3,4-tetrahydroacridin-9-yl)amino)butyl)-olean-12-en-28-amide], the IC50 in data set [1] (IC50 hBuChE) and in data set [5] (setting [7]) was > 10 µM in each case.

Turning to `CC1(C)CC[C@]2(C(=O)NCCCCCCNc3c4c(nc5c(Br)cccc35)CCCC4)CC[C@]3(C)C(=CCC4[C@@]5(C)CC[C@H](O)C(C)(C)C5CC[C@]43C)C2C1` (stereo partly drawn) [Compound E5, N-(6-((5-bromo-1,2,3,4-tetrahydroacridin-9-yl)amino)hexyl)-olean-12-en-28-amide], the IC50 in data set [1] (read-out: IC50 hBuChE) and in data set [5] was > 10 µM throughout.

In the case of `CC1(C)CC[C@]2(C(=O)NCCCNc3c4c(nc5cc(F)ccc35)CCCC4)CC[C@]3(C)C(=CCC4[C@@]5(C)CC[C@H](O)C(C)(C)C5CC[C@]43C)C2C1` (stereo partly drawn) [Compound F2], the IC50 in data set [1] (IC50 hBuChE) and in data set [5] was > 10 µM in each case.

In the case of `CC1(C)CC[C@]2(C(=O)NCCCCCCNc3c4c(nc5c(F)cccc35)CCCC4)CC[C@]3(C)C(=CCC4[C@@]5(C)CC[C@H](O)C(C)(C)C5CC[C@]43C)C2C1` (stereo partly drawn) [Compound G5, N-(6-((5-fluoro-1,2,3,4-tetrahydroacridin-9-yl)amino)hexyl)-olean-12-en-28-amide], the IC50 in data set [1] (read-out: IC50 hBuChE) is 3.81 ± 1.04 µM. Also, in data set [5], the IC50 was > 10 µM and the “SI (selectivity index, hBuChE/hAChE)” value was <0.38.

Turning to `CC1(C)CC[C@]2(C(=O)NCCNc3c4c(nc5c(Cl)cccc35)CCCC4)CC[C@]3(C)C(=CCC4[C@@]5(C)CC[C@H](O)C(C)(C)C5CC[C@]43C)C2C1` (stereo partly drawn) [Compound C1, N-(2-((5-chloro-1,2,3,4-tetrahydroacridin-9-yl)amino)ethyl)-olean-12-en-28-amide], the IC50 in data set [1] (read-out: IC50 hBuChE) and in data set [5] was > 10 µM in each case.

With `CC1(C)CC[C@]2(C(=O)NCCNc3c4c(nc5cc(F)ccc35)CCCC4)CC[C@]3(C)C(=CCC4[C@@]5(C)CC[C@H](O)C(C)(C)C5CC[C@]43C)C2C1` (stereo partly drawn) [Compound F1, N-(2-((6-fluoro-1,2,3,4-tetrahydroacridin-9-yl)amino)ethyl)-olean-12-en-28-amide], the half-maximal inhibitory concentration (IC50) in data set [1] (read-out: IC50 hBuChE) and in data set [5] was > 10 µM each time.

As to `CC1(C)CC[C@]2(C(=O)NCCCCCNc3c4c(nc5c(F)cccc35)CCCC4)CC[C@]3(C)C(=CCC4[C@@]5(C)CC[C@H](O)C(C)(C)C5CC[C@]43C)C2C1` (stereo partly drawn) [Compound G4, N-(5-((5-fluoro-1,2,3,4-tetrahydroacridin-9-yl)amino)pentyl)-olean-12-en-28-amide], the figures for the IC50 in data set [1] (read-out: IC50 hBuChE) and in data set [5] were 1.6 ± 0.0904 µM and > 10 µM, respectively. Also, in data set [5], the “SI (selectivity index, hBuChE/hAChE)” value is <0.16.

Regarding `CC1(C)CC[C@]2(C(=O)NCCCNc3c4c(nc5c(F)cccc35)CCCC4)CC[C@]3(C)C(=CCC4[C@@]5(C)CC[C@H](O)C(C)(C)C5CC[C@]43C)C2C1` (stereo partly drawn) [Compound G2], the IC50 in data set [1] (IC50 hBuChE) came out at 0.921 ± 0.0587 µM. Also, in data set [5], the IC50 is > 10 µM and the “SI (selectivity index, hBuChE/hAChE)” value is <0.09.

Turning to `CC1(C)CC[C@]2(C(=O)NCCCNc3c4c(nc5c(Cl)cccc35)CCCC4)CC[C@]3(C)C(=CCC4[C@@]5(C)CC[C@H](O)C(C)(C)C5CC[C@]43C)C2C1` (stereo partly drawn) [Compound C2, N-(3-((5-chloro-1,2,3,4-tetrahydroacridin-9-yl)amino)propyl)-olean-12-en-28-amide], the IC50 in data set [1] (read-out: IC50 hBuChE) and in data set [5] was > 10 µM in each case.

As for `CC1(C)CC[C@]2(C(=O)NCCCNc3c4c(nc5c(Br)cccc35)CCCC4)CC[C@]3(C)C(=CCC4[C@@]5(C)CC[C@H](O)C(C)(C)C5CC[C@]43C)C2C1` (stereo partly drawn) [Compound E2], the IC50 in data set [1] (IC50 hBuChE) and in data set [5] (setting [7]) was > 10 µM each time.

As to `CC1(C)CC[C@]2(C(=O)NCCCCCNc3c4c(nc5ccccc35)CCCC4)CC[C@]3(C)C(=CCC4[C@@]5(C)CC[C@H](O)C(C)(C)C5CC[C@]43C)C2C1` (stereo partly drawn) [Compound A3], the IC50 in data set [1] (read-out: IC50 hBuChE) worked out at 2.78 ± 0.0607 µM. In addition, in data set [5], the IC50 was determined as 0.775 ± 0.28 µM and the “SI (selectivity index, hBuChE/hAChE)” value stood at 3.59.
